Laboratory results reported in the NIST ThermoML archive (doi:10.1021/je700411p).
Numbers after ± are expanded uncertainties.

What was measured:
[1] = refractive index (Na D-line) (dimensionless); conditions: 298.15 K; 101.33 kPa; Liquid; Standard Abbe refractometry
[2] = Liquid; for mass density: 298.15 K, 101.33 kPa

CC(=O)O [acetic acid]
Conditions	mass density [kg/m3]	refractive index
[1]	–	1.3696 ± 0.0007
[2]	1043.9 ± 0.15	–

[2], Ebulliometric method (Recirculating still)
Conditions	vapor or sublimation pressure [kPa]
328.56 K	9.98 ± 0.2
330.65 K	10.97 ± 0.2
332.65 K	11.98 ± 0.2
336.23 K	13.97 ± 0.2
339.41 K	15.97 ± 0.2
342.25 K	17.98 ± 0.2
344.81 K	19.98 ± 0.2
347.19 K	21.98 ± 0.2
349.4 K	23.98 ± 0.2
352.43 K	26.97 ± 0.2
355.18 K	29.96 ± 0.2
357.72 K	32.98 ± 0.2
360.09 K	35.94 ± 0.2
362.26 K	38.96 ± 0.2
365 K	42.93 ± 0.2
366.3 K	44.95 ± 0.2
369.3 K	49.94 ± 0.2
372.09 K	54.93 ± 0.2
374.63 K	59.83 ± 0.2
377.03 K	64.87 ± 0.21
379.25 K	69.84 ± 0.21
381.39 K	74.82 ± 0.21
383.35 K	79.71 ± 0.21
385.23 K	84.52 ± 0.21
387.1 K	89.81 ± 0.21
388.77 K	94.52 ± 0.21
390.91 K	101.3 ± 0.21

CCCCO [butan-1-ol]
Conditions	mass density [kg/m3]	refractive index
[1]	–	1.396 ± 0.0007
[2]	805.6 ± 0.29	–

Conditions	vapor or sublimation pressure [kPa]
[2], 390.46 K	101.3

CCCCOC(C)=O [butyl ethanoate]
Conditions	mass density [kg/m3]	refractive index
[1]	–	1.3916 ± 0.0008
[2]	876.02 ± 0.41	–

[2], Ebulliometric method (Recirculating still)
Conditions	vapor or sublimation pressure [kPa]
334.36 K	9.99 ± 0.2
336.53 K	10.98 ± 0.2
338.56 K	11.99 ± 0.2
342.2 K	13.97 ± 0.2
345.47 K	15.99 ± 0.2
348.37 K	17.97 ± 0.2
351.02 K	19.98 ± 0.2
353.45 K	21.97 ± 0.2
355.72 K	23.97 ± 0.2
357.84 K	25.98 ± 0.2
359.79 K	27.92 ± 0.2
362.58 K	30.98 ± 0.2
365.1 K	33.92 ± 0.2
367.5 K	36.96 ± 0.21
369.74 K	39.97 ± 0.21
373.18 K	44.92 ± 0.21
376.31 K	49.9 ± 0.21
379.18 K	54.92 ± 0.21
381.89 K	59.93 ± 0.21
384.4 K	64.95 ± 0.21
386.74 K	69.92 ± 0.22
388.96 K	74.95 ± 0.22
391.05 K	79.91 ± 0.22
393.02 K	84.83 ± 0.22
394.94 K	89.87 ± 0.23
396.72 K	94.73 ± 0.23
399.05 K	101.3 ± 0.23
